Assay results reported in patent publication US20170198011A1, “COMPOSITION FOR TREATING SEPSIS OR SEPTIC SHOCK COMPRISING THE PEPTIDE ORIGINATED FROM THE SMAD6” (Medpacto, Inc., priority 2011, published 2017).
Where no end group is shown, it is not given here. The star is where a group is joined. Palmitoyl = CCCCCCCCCCCCCCCC(=O)*

Columns and labels:
[1] = tested on: inflammatory cytokines; test: Blood cytokine levels by ELISA in mice with CLP-induced sepsis; format: in vivo; details: blood 24 hrs after CLP
Source text: FIG. 6A to 6I show levels of cytokines in blood samples from mice subcutaneously injected twice with Smaducin-6 or scrambled peptides at 2 and 14 hrs after CLP induction, as analyzed by ELISA, the blood samples being taken 24 hrs after CLP induction, and
In animal models of CLP-induced sepsis, Smaducin-6 was examined for ability to downregulate inflammatory cytokines. Blood samples were taken from each experimental group, and various cytokines and chemokines related with inflammatory responses were quantitatively measured. To the mice with CLP-induced sepsis, the peptide of the present invention was injected 2 and 14 hrs after CLP, and blood samples were collected 24 hrs after CLP. Levels of cytokines and chemokines in the blood samples were determined by ELISA using various antibodies according to the manufacturer's protocol. The antibodies used in this ELISA included mouse IL-6 (88-7064), IFN-γ (88-7314), TNF-α (88-7346), IL-4 (88-7044), IL-10 (88-7104), TGF-β1 (88-7344), IL-12 p70 (88-7121) and IL-17A (88-7371) ELISA Ready-SET-GO from eBioscience, Mouse IL-1β ELISA Set (559603) from BD Sciences, Mouse CXCL2/MIP-2 Immunoassay (MM200) from R&D Systems, and Mouse IFN-β ELISA Kit from PBL Biomedical Laboratories.

[2] = tested on: IL-6; test: IL-6 immunoblot in spleen and liver of CLP mice; format: in vivo; details: immunoblotting
[3] = tested on: CXCR2; test: CXCR2 surface expression on human neutrophils by FACS; format: cell-based; details: 100 nM for 2 hrs, then LPS 2 hrs
Procedure: FIG. 7C is a graph showing expression levels of CXCR2 on the surface of human neutrophils treated for 2 hrs with 100 nM scrambled peptides or Smaducin-6 and then for 2 hrs with LPS, as analyzed by FACS, and
To investigate the mechanism in which Smaducin-6 promotes peritoneal neutrophil migration, human neutrophils were treated for 2 hrs with 100 nM scrambled peptides or Smaducin-6 in advance of LPS treatment for 2 hrs. The expression of CXCR2, a chemokine receptor related with neutrophil migration, on the cell surface was analyzed using flow cytometry (FACS). Human neutrophils were isolated from normal human peripheral blood using Histopaque-1077 (Sigma) over a density gradient under the permission of the […] of Ajou University, School of Medicine (Suwon, Korea).

[4] = tested on: bacteria in peritoneal fluid; test: Bacterial count in peritoneal fluid of CLP mice; format: in vivo; details: subcutaneous injection, versus scrambled peptides
Source text: FIG. 7A is a graph showing cell counts in the peritoneal fluid taken from sepsis mice treated with scrambled peptides or Smaducin-6,
(§1) In mice with CLP-induced sepsis, the bacterial clearance of Smaducin-6 was examined. Smaducin-6 or the scrambled peptides were subcutaneously injected into CLP mice from which peritoneal fluid was then extracted from the mice, and bacteria in the fluid was counted. […] An examination was made to see whether this bacterial clearance of Smaducin-6 was attributed to the intraperitoneal migration of neutrophils. To this end, 2 and 14 hrs after induction of septic shock by injecting 60 mg/kg of LPS, Smaducin-6 or the scrambled peptides were injected into septic shock mice, and 24 hrs after the induction of septic shock, neutrophils were isolated from the peritoneal cavity using Histopaque-1077 (Sigma). Mouse neutrophils were counted using Trypan Blue (Sigma).

[5] = tested on: lung, liver and spleen of CLP mice; test: Hematoxylin-eosin staining of tissues of CLP mice; format: in vivo, BALB/c mice; details: 16 mg/kg, compared to control
Procedure: (§2) For use in assay for therapeutic effects of Smaducin-6 on sepsis, BALB/c mice were subjected to CLP (cecal ligation puncture) to prepare suitable animal models of clinical sepsis. Two hours after CLP operation on the mice, Smaducin-6 was subcutaneously injected at a dose of 8 mg/kg, 12 mg/kg, or 16 mg/kg to the mice, and then three more times at regular intervals of 12 hrs. […] In this context, Smaducin-6 was initially injected at a dose of 16 mg/kg 2, 4, or 10 hrs after CLP operation, and then three more times at regular intervals of 12 hrs. Further, cells from various tissues of CLP mice were stained with hematoxylin-eosin to observe nucleus and cell morphology.

[6] = tested on: NF-κB; test: NF-κB-mediated downstream signaling in LPS-stimulated RAW264.7 cells (luciferase, immunoblots); format: cell-based, mouse
Procedure: FIG. 4B is a graph showing luciferase activity in RAW264.7 cells transfected with a 5×NF-κB-Luc plasmid after treatment with scrambled peptides (Pal-Scram; 100 nM) or Smaducin-6 and then with LPS,

[7] = tested on: BALB/c mice with CLP-induced sepsis; test: Survival of mice with CLP-induced sepsis; format: in vivo
Procedure: as §2

[8] = tested on: neutrophils; test: Peritoneal neutrophil migration in LPS septic shock mice; format: in vivo, BALB/c mice; details: LPS 60 mg/kg, injected 2 and 14 hrs after, neutrophils isolated at 24 hrs
Source text: FIG. 7B is a graph showing neutrophil counts in the peritoneal fluid taken from BALB/c mice with LPS-induced septic shock at 24 hrs after LPS injection,
as §1

[9] = tested on: GRK2; test: LPS-induced GRK2 expression in human neutrophils (immunoblot); format: cell-based; details: 100 nM for 2 hrs, then LPS 2 hrs
Procedure: To examine how Smaducin-6 interrupts with the LPS-induced downregulation of CXCR2, the levels of G-protein-coupled receptor kinase 2 (GRK2) in human neutrophils and RAW264.7 macrophages were measured. GRK2 is upregualted by LPS, which is known to suppress the expression of CXCR2.

[10] = injected 2 and 14 hrs after CLP

Smaducin-6: palmitic acid conjugated to N-terminus of the 20-amino-acid peptide of Smad6 position 422 to 441, GGRALVVRKVPPGYSIKVFD (SEQ ID NO: 1) (Palmitoyl-GGRALVVRKVPPGYSIKVFD)
level of IFN-γ in the blood [1, 10]: significantly reduced
level of IL-1β in the blood [1, 10]: significantly reduced
level of IL-6 in the blood [1, 10]: significantly reduced
level of TNF-α in the blood [1, 10]: significantly reduced
level of IL-4 in the blood ([1]; versus scrambled peptide): no statistically significant changes
level of IL-10 in the blood ([1]; versus scrambled peptide): no statistically significant changes
level of IL-12 in the blood ([1]; versus scrambled peptide): no statistically significant changes
level of IL-17A in the blood ([1]; versus scrambled peptide): no statistically significant changes
level of TGF-β1 in the blood ([1]; versus scrambled peptide): no statistically significant changes
IL-6 expression in the spleen and the liver [2]: reduce
expression of CXCR2 on the cell surface [3]: kept the expression of CXCR2 at a normal level
number of bacteria in the peritoneal fluid [4]: significantly lower
morphology of cells and tissues of the lung, the liver and the spleen [5]: morphologically restored
NF-κB-mediated luciferase gene expression ([6]; 5xNF-κB-Luc): suppress
IKKα/β phosphorylation ([6]; immunoblot): suppress
IκBα degradation ([6]; immunoblot): suppress
survival rate of CLP mice ([7]; 12 mg/kg subcutaneous, first injection 2 hrs after CLP, three more times every 12 hrs (FIG. 5A)): 70%
survival rate of CLP mice ([7]; 16 mg/kg subcutaneous, first injection 2 hrs after CLP, three more times every 12 hrs (FIG. 5A)): 90%
survival rate of CLP mice ([7]; 16 mg/kg, initial injection 2 hrs after CLP (FIG. 5B)): 90%
survival rate of CLP mice ([7]; 16 mg/kg, initial injection 4 hrs after CLP (FIG. 5B)): 60%
migration of neutrophils to the peritoneal cavity [8]: increased
LPS-induced GRK2 expression [9]: downregualed
